Measurements as given in ChEMBL document CHEMBL1201862, “PubChem BioAssay data set” (2004).
The source made the active and inactive calls.

Assays:
[1] = biological target: T1, Tyrosyl-DNA phosphodiesterase 2 (Homo sapiens, UniProt O95551); assay: potency against TDP2 phosphodiesterase activity – biochemical, epi absorbance, IC50, dose response (AID 743297)
T1 sequence (O95551 whole entry): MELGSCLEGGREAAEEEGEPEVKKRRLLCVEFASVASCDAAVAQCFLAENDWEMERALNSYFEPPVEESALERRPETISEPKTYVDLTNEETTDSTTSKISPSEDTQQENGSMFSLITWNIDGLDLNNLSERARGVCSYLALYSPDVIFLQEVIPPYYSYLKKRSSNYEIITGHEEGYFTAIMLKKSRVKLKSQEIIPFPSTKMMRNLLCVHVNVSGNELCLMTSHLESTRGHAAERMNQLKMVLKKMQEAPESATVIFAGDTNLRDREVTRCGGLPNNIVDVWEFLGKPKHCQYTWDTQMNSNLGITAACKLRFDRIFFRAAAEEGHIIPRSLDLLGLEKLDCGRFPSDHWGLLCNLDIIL

[2] = viability loss in HEK293 cells – cell-based, plate reader, cherry-picked samples, cytotoxicity control, dose response (AID 743446); assay type: functional
[3] = blockers of bursicon-stimulated LGR2 cAMP reporter – cell-based, HEK293, CRE-luciferase reporter, cherry pick, set 2, dose response (AID 743343); assay type: functional;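 note: transfected cells were stimulated with diluted bursicon conditioned medium after compound addition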
[4] = toxicity toward HepG2 liver cells – cell-based, plate reader, cherry-pick, antagonist series, cytotoxicity control, dose response (AID 743416); assay type: functional
[5] = biological target: T2, Apoptotic protease-activating factor 1 (Homo sapiens, UniProt O14727); assay type: functional
T2 sequence (O14727 whole entry): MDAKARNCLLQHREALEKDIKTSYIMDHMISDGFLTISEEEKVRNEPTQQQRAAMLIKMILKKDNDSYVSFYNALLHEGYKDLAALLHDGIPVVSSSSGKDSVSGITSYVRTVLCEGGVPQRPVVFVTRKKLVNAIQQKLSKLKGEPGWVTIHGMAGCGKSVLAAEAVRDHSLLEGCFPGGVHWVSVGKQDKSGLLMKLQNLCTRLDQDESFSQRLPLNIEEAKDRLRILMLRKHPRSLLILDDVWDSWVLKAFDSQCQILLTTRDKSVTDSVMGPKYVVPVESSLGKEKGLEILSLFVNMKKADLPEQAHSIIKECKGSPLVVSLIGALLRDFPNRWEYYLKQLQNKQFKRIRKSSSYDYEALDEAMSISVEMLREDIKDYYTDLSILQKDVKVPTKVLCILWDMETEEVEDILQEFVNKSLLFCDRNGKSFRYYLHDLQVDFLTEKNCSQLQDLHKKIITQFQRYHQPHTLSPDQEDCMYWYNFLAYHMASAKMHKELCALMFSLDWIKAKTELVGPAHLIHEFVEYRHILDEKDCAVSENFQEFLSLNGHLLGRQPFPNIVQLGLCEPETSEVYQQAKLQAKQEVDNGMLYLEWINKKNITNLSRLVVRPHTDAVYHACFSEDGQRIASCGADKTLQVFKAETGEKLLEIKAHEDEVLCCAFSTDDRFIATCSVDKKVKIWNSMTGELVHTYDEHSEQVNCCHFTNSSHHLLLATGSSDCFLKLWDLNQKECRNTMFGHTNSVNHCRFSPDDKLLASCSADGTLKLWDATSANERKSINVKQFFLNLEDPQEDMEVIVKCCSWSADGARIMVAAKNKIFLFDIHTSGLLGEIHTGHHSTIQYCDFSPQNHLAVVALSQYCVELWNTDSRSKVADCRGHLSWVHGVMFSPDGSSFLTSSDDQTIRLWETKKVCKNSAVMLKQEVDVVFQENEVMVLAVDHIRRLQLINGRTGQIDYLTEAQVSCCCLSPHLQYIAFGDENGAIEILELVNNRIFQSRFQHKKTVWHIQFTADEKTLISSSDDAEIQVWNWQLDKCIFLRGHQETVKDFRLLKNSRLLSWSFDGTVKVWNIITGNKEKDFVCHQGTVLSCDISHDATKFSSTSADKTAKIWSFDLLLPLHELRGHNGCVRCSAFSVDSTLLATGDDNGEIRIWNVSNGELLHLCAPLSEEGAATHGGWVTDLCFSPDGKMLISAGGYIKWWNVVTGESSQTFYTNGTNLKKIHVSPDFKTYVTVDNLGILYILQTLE

[6] = blockade of melanocortin 4 receptor signaling – cell-based, plate reader, cherry pick, counter-screen for LGR2 antagonist project, dose response (AID 743444); assay type: functional;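 note: transfected HEK 293 cells stimulated with alpha-MSH peptide; potency of inhibitors of the alpha-MSH evoked signal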
[7] = biological target: T3, Replicative DNA helicase DnaB (Mycobacterium tuberculosis, UniProt P9WMR3); assay: DnaB intein splicing inhibitors, dose response, biochemical, cell-free fluorescence (AID 449749); assay type: functional
T3 sequence (P9WMR3 whole entry): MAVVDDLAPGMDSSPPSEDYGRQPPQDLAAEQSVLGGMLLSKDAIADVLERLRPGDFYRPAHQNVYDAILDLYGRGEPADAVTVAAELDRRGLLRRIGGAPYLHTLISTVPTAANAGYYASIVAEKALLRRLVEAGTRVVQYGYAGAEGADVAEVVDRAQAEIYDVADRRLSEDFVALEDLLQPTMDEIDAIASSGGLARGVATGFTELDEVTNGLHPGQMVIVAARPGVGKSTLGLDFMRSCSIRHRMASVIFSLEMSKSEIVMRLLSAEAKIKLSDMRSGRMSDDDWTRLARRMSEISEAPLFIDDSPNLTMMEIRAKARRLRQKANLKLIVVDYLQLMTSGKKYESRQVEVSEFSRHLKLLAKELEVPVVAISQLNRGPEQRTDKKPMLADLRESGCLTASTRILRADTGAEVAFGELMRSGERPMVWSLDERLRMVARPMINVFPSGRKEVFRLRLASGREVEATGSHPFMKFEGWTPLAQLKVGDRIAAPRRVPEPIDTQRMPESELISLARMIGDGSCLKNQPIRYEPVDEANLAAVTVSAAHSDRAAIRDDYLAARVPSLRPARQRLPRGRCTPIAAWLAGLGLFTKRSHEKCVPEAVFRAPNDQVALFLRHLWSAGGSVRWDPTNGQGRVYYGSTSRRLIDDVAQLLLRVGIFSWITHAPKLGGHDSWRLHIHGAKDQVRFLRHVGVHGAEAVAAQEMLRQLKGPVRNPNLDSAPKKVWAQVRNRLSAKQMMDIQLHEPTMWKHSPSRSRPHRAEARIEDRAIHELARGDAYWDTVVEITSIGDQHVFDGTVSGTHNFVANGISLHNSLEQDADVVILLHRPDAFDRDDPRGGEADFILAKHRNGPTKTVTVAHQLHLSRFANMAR

Structure (SMILES) | IC50 [1] | AC50 [2] | AC50 [3] | AC50 [4] | IC50 [5] | AC50 [6] | AC50 [7]
O=C1c2ccccc2C(=O)C12OC2c1cccc2ccccc12 (centres undefined) | 5.07 µM (active) |  |  |  |  |  | 
CCC(COC)Oc1cc(NCc2ccccc2)c2ncn(C(C)C)c2c1 (centres undefined) | > 42.8 µM (inactive) | 30.4 µM (active) | 23.1 µM (active) | 19.6 µM (active) | 16.7 µM (active) | 33.5 µM (active) | 
O=c1[nH]c(N2CCOCC2)cc2ccccc12 |  |  |  |  | 8.83 µM (active) |  | > 120 µM (inactive)
O=[N+]([O-])c1ccc(Sc2nc3ccccc3o2)c([N+](=O)[O-])c1 |  | 8.49 µM (active) | 24.9 µM (active) | 6.16 µM (active) |  | 28.8 µM (active) | 2.05 µM (active)
